Patent publication US20240294498A1, “FACTOR XIIA INHIBITORS” (Lunac Therapeutics Ltd, priority 2021, published 2024)

How the values were obtained:
Assay type in all cases: biochemical
FXIIa = target: T1, FXIIa (Homo sapiens, UniProt P00748); assay: Determination of Factor XIIa inhibition (chromogenic substrate S-2302); details: human FXIIa alpha, Ki category
T1 construct: FXIIa alpha
T1 sequence (P00748 373-615 limits assumed): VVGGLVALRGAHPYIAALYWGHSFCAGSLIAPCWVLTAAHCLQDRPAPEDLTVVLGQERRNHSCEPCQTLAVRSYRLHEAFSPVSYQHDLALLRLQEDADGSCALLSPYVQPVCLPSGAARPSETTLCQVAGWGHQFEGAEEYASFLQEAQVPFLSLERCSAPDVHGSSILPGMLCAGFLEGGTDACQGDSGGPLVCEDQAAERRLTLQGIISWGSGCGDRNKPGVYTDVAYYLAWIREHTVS
T1 sequence (P00748 20-372 partner limits assumed): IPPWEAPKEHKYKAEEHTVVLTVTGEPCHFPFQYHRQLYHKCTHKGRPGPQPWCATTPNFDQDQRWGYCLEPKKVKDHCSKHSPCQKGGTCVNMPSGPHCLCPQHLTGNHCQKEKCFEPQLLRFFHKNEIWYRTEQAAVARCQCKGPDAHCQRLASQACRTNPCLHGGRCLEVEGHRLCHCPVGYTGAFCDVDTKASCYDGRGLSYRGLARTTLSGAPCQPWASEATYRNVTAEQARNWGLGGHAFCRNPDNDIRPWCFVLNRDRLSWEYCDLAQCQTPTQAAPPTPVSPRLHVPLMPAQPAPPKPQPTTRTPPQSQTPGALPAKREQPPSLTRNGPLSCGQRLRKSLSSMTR
Method in brief: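 Compound preincubated with 10 nM FXIIa for 10 min at 37° C in 50 mM Tris, 137 mM NaCl, pH 7.4, 5% DMSO, top concentration 500 μM; S-2302 added at Km. pNA release followed at 405 nm for 3 h; IC50 from initial rates, converted to Ki via Ki = IC50/(1+[S]/Km).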

FXa = FXa (Homo sapiens, UniProt P00742); assay: Determination of selectivity: FXa inhibition (chromogenic substrate S2765); details: fold selectivity for FXIIa over FXa (human); category
FXa, sequence (P00742 235-488 limits assumed): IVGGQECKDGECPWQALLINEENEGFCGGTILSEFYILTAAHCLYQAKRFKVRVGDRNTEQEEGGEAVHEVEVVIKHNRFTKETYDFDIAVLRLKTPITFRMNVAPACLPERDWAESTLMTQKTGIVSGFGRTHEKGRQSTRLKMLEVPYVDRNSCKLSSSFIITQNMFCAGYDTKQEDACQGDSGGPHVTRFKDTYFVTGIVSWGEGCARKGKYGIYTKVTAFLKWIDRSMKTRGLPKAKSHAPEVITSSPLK
FXa, sequence (P00742 41-179 partner limits assumed): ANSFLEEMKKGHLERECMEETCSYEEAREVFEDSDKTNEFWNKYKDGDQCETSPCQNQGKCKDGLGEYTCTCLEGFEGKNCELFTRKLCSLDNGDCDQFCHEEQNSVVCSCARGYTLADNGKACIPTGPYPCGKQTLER
Method in brief: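 FXa (5 nM) preincubated with increasing compound (top 500 μM) for 10 mins at 37° C in 50 mM Tris, 137 mM NaCl pH 7.4, 5% DMSO, then S2765 added at its KM. Absorbance at 405 nm followed kinetically for 3 hours; IC50 from initial rates, converted to Ki by Cheng-Prusoff.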

thrombin = target: T2, thrombin (Homo sapiens, UniProt P00734); assay: Determination of selectivity: thrombin inhibition (chromogenic substrate GPR); details: fold selectivity for FXIIa over thrombin (human); category
T2 construct: FXa (5 nM) and thrombin (5 nM)
Method in brief: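 Thrombin (5 nM) preincubated with increasing compound concentrations (top 500 μM, 5% DMSO) 10 min at 37 °C in 50 mM Tris, 137 mM NaCl pH 7.4, then GPR chromogenic substrate at its KM. pNA release read kinetically at 405 nm for 3 h at 37 °C. IC50 from initial rates, converted to Ki via Cheng–Prusoff.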

Ki (FXIIa) [nM]	FXa (human)/FXIIa alpha (human) (FXa)	SMILES	Thrombin (human)/FXIIa alpha (human) (thrombin)
< 200	∘∘∘	Cc1ccc(C[C@@H]2C[C@@H](C(=O)NCc3ccc4c(cnn4C)c3)N(C(=O)[C@@H]3NCCC[C@@H]3C(=O)N3CC(F)C3)C2)cc1 [Example M05878, (2S,4R)-1-((2R,3S)-3-(3-fluoroazetidine-1-carbonyl)piperidine-2-carbonyl)-N-((1-methyl-1H-indazol-5-yl)methyl)-4-(4-methylbenzyl)pyrrolidine-2-carboxamide]	+++ (fold selectivity values greater than 100)
< 200	∘∘∘	Cn1nnc2cc(CNC(=O)[C@@H]3C[C@@H](Cc4ccc5ccccc5c4)CN3C(=O)[C@@H]3NCCC[C@@H]3C(=O)N3CCCC3)ccc21 [Example M05881, (2S,4R)-N-((1-methyl-1H-benzo[d][1,2,3]triazol-5-yl)methyl)-4-(naphthalen-2-ylmethyl)-1-((2R,3S)-3-(pyrrolidine-1-carbonyl)piperidine-2-carbonyl)pyrrolidine-2-carboxamide]	+++ (fold selectivity values greater than 100)
800 to 5000	∘∘∘	Cc1nnc2cc(CNC(=O)[C@@H]3C[C@@H](Cc4ccc(C(F)(F)F)cc4)CN3C(=O)[C@@H]3NCCC[C@@H]3C(=O)N3CCCC3)ccn12 [Example M05882, (2S,4R)-N-((3-methyl-[1,2,4]triazolo[4,3-a]pyridin-7-yl)methyl)-1-((2R,3S)-3-(pyrrolidine-1-carbonyl)piperidine-2-carbonyl)-4-(4-(trifluoromethyl)benzyl)pyrrolidine-2-carboxamide]	+++ (fold selectivity values greater than 100)
< 200	∘∘	Cc1ccc(C[C@@H]2C[C@@H](C(=O)NCc3cnc4[nH]cc(Cl)c4c3)N(C(=O)[C@@H]3NCCC[C@@H]3C(=O)N3CCCC3)C2)cc1 [Example M05899, (2S,4R)-N-((3-chloro-1H-pyrrolo[2,3-b]pyridin-5-yl)methyl)-4-(4-methylbenzyl)-1-((2R,3S)-3-(pyrrolidine-1-carbonyl)piperidine-2-carbonyl)pyrrolidine-2-carboxamide]	+ (fold selectivity values less than 10 (e.g. a fold selectivity value of less than 10 and greater than 1))
200 to 800	∘∘∘	Cc1ccc(C[C@@H]2C[C@@H](C(=O)NCC3CCn4c(C)nnc4C3)N(C(=O)[C@@H]3NCCC[C@@H]3C(=O)N3CCCC3)C2)cc1 (stereo partly drawn) [Example M05913, (2S,4R)-N-[(3-mthyl-5,6,7,8-tetrahydro-[1,2,4]triazolo[4,3-a]pyidin-7-yl)methyl]-4-(p-tolylmethyl)-1-[(2R,3S)-3-(pyrrolidine-1-carbonyl)piperidine-2-carbonyl]pyrrolidine-2-carboxamide]	+++ (fold selectivity values greater than 100)
< 200	∘∘∘	Cn1nnc2cc(CNC(=O)[C@@H]3C[C@@H](Cc4ccc(C5CC5)cc4)CN3C(=O)[C@@H]3NCCC[C@@H]3C(=O)N3CCCC3)ccc21 [Example M05934, (2S,4R)-4-(4-cyclopropylbenzyl)-N-((1-methyl-1H-benzo[d][1,2,3]triazol-5-yl)methyl)-1-((2R,3S)-3-(pyrrolidine-1-carbonyl)piperidine-2-carbonyl)pyrrolidine-2-carboxamide]	+++ (fold selectivity values greater than 100)
200 to 800	∘∘∘	CCCc1ccc(C[C@@H]2C[C@@H](C(=O)NCc3ccc4c(c3)nnn4C)N(C(=O)[C@@H]3NCCC[C@@H]3C(=O)N3CCCC3)C2)cc1 [Example M05935]	+++ (fold selectivity values greater than 100)
≥ 5000	∘∘	COc1ccc(CNC(=O)[C@@H]2C[C@@H](Cc3ccc(C)cc3)CN2C(=O)[C@@H]2NCCC[C@@H]2C(=O)N2CCCC2)cc1 [Example M05965, (2S,4R)-N-[(4-methoxyphenyl)methyl]-4-(p-tolylmethyl)-1-[(2R,3S)-3-(pyrrolidine-1-carbonyl)piperidine-2-carbonyl]pyrrolidine-2-carboxamide]	++ (a fold selectivity value of 10 to 100)
< 200	∘∘∘	Cn1nnc2cc(CNC(=O)[C@@H]3C[C@@H](CC4=CCC5(CC4)CC5)CN3C(=O)[C@@H]3NCCC[C@@H]3C(=O)N3CCCC3)ccc21 [Example M05991]	+++ (fold selectivity values greater than 100)
200 to 800	∘∘∘	Cn1nnc2cc(CNC(=O)[C@@H]3C/C(=C/C4=CCC5(CC4)CC5)CN3C(=O)[C@@H]3NCCC[C@@H]3C(=O)N3CCCC3)ccc21 [Example M05992, (S,Z)-N-((1-methyl-1H-benzo[d][1,2,3]triazol-5-yl)methyl)-1-((2R,3S)-3-(pyrrolidine-1-carbonyl)piperidine-2-carbonyl)-4-(spiro[2.5]oct-5-en-6-ylmethylene)pyrrolidine-2-carboxamide]	+++ (fold selectivity values greater than 100)
200 to 800	∘∘∘	Cn1ncc2cc(CNC(=O)[C@@H]3C[C@@H](Cc4ccc(C5CC5)nn4)CN3C(=O)[C@@H]3NCCC[C@@H]3C(=O)N3CCCC3)ccc21 [Example M05997, (2S,4S)-4-[(6-cyclopropylpyridazin-3-yl)methyl]-N-[(1-methylindazol-5-yl)methyl]-1-[(2R,3S)-3-(pyrrolidine-1-carbonyl)piperidine-2-carbonyl]pyrrolidine-2-carboxamide]	+++ (fold selectivity values greater than 100)
200 to 800	∘∘∘	Cc1nnc2cc(CNC(=O)[C@@H]3C[C@@H](Cc4ccc(C5CC5)cc4)CN3C(=O)[C@@H]3NCCC[C@@H]3C(=O)N3CCCC3)ccn12 [Example M06006, (2S,4R)-4-(4-cyclopropylbenzyl)-N-((3-methyl-[1,2,4]triazolo[4,3-a]pyridin-7-yl)methyl)-1-((2R,3S)-3-(pyrrolidine-1-carbonyl)piperidine-2-carbonyl)pyrrolidine-2-carboxamide]	+++ (fold selectivity values greater than 100)
200 to 800	∘∘∘	Cn1ncc2cc(CNC(=O)[C@@H]3C[C@@H](Cc4ncc(C5CC5)o4)CN3C(=O)[C@@H]3NCCC[C@@H]3C(=O)N3CCCC3)ccc21 [Example M06009]	+++ (fold selectivity values greater than 100)
200 to 800	∘∘∘	Cc1ccc(C[C@@H]2C[C@@H](C(=O)NCc3ccc4c(cnn4C)c3)N(C(=O)[C@@H]3NCCC[C@@H]3C(=O)N3CC[C@@H](N(C)C)C3)C2)cc1 [Example M06010, (2S,4R)-1-((2R,3S)-3-((R)-3-(dimethylamino)pyrrolidine-1-carbonyl)piperidine-2-carbonyl)-N-((1-methyl-1H-indazol-5-yl)methyl)-4-(4-methylbenzyl)pyrrolidine-2-carboxamide]	+++ (fold selectivity values greater than 100)
< 200	∘∘∘	Cc1ccc(C[C@@H]2C[C@@H](C(=O)NCc3ccc4c(cnn4C)c3)N(C(=O)[C@@H]3NCCC[C@@H]3C(=O)N3CC[C@H](N(C)C)C3)C2)cc1 [Example M06013, (2S,4R)-1-((2R,3S)-3-((S)-3-(dimethylamino)pyrrolidine-1-carbonyl)piperidine-2-carbonyl)-N-((1-methyl-1H-indazol-5-yl)methyl)-4-(4-methylbenzyl)pyrrolidine-2-carboxamide]	+++ (fold selectivity values greater than 100)
200 to 800	∘∘∘	Cn1ncc2cc(CNC(=O)[C@@H]3C[C@@H](Cc4ccc(OC(F)F)cc4)CN3C(=O)[C@@H]3NCCC[C@@H]3C(=O)N3CCCC3)ccc21 [Example M06021]	+++ (fold selectivity values greater than 100)
